Reference: US20090170934A1, “MANUFACTURING PROCESS FOR NO-DONATING COMPOUNDS SUCH AS NO-DONATING DICLOFENAC” (NICOX SA, priority 2002, published 2009)

For `O=C(Cc1ccccc1Nc1c(Cl)cccc1Cl)OCCOCCO[N+](=O)[O-]` [Compound IVa, 2-[2-(nitrooxy)ethoxy]ethyl {2-[(2,6-dichlorophenyl)amino]phenyl}acetate], the melting point was 73 °C.
